Patent publication US11166944B2 (AI Therapeutics, priority 2014, dated 2021)
pIC50: −log10 of the molar value.

Tests used:
[1] = tested on: peripheral blood mononuclear cells; conditions: cited from earlier work
[2] = target: T1, Vac14 (Homo sapiens, UniProt Q08AM6); assay: Chemical capture mass spectrometry (CCMS) in H4 whole cell lysate; assay type: binding; conditions: apilimod as competitor ligand
T1 construct: endogenous in cells; host or cells: H4 human neuroglioma cells (whole cell lysate)
T1 sequence (Q08AM6 whole entry): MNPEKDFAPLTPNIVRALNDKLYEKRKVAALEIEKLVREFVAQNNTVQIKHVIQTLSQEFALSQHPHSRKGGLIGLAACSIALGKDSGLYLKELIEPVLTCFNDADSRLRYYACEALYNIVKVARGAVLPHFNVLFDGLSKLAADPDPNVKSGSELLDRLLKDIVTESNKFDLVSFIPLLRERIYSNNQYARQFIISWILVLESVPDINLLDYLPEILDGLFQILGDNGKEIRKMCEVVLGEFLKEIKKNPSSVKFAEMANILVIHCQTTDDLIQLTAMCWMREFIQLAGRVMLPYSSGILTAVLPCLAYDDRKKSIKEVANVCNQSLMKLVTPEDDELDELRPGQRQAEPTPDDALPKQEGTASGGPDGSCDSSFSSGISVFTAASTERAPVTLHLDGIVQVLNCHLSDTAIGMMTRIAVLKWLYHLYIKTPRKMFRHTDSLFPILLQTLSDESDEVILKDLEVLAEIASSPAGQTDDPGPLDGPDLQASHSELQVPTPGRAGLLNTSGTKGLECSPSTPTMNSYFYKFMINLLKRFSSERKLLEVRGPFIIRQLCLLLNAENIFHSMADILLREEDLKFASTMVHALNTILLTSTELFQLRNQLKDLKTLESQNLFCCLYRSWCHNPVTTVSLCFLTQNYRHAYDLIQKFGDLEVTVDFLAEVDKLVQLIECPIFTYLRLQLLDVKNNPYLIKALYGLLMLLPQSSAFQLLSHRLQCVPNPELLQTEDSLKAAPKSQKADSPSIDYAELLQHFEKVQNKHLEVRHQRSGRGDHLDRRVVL
T1 sequence (Q9Y2I7 2-2098 partner): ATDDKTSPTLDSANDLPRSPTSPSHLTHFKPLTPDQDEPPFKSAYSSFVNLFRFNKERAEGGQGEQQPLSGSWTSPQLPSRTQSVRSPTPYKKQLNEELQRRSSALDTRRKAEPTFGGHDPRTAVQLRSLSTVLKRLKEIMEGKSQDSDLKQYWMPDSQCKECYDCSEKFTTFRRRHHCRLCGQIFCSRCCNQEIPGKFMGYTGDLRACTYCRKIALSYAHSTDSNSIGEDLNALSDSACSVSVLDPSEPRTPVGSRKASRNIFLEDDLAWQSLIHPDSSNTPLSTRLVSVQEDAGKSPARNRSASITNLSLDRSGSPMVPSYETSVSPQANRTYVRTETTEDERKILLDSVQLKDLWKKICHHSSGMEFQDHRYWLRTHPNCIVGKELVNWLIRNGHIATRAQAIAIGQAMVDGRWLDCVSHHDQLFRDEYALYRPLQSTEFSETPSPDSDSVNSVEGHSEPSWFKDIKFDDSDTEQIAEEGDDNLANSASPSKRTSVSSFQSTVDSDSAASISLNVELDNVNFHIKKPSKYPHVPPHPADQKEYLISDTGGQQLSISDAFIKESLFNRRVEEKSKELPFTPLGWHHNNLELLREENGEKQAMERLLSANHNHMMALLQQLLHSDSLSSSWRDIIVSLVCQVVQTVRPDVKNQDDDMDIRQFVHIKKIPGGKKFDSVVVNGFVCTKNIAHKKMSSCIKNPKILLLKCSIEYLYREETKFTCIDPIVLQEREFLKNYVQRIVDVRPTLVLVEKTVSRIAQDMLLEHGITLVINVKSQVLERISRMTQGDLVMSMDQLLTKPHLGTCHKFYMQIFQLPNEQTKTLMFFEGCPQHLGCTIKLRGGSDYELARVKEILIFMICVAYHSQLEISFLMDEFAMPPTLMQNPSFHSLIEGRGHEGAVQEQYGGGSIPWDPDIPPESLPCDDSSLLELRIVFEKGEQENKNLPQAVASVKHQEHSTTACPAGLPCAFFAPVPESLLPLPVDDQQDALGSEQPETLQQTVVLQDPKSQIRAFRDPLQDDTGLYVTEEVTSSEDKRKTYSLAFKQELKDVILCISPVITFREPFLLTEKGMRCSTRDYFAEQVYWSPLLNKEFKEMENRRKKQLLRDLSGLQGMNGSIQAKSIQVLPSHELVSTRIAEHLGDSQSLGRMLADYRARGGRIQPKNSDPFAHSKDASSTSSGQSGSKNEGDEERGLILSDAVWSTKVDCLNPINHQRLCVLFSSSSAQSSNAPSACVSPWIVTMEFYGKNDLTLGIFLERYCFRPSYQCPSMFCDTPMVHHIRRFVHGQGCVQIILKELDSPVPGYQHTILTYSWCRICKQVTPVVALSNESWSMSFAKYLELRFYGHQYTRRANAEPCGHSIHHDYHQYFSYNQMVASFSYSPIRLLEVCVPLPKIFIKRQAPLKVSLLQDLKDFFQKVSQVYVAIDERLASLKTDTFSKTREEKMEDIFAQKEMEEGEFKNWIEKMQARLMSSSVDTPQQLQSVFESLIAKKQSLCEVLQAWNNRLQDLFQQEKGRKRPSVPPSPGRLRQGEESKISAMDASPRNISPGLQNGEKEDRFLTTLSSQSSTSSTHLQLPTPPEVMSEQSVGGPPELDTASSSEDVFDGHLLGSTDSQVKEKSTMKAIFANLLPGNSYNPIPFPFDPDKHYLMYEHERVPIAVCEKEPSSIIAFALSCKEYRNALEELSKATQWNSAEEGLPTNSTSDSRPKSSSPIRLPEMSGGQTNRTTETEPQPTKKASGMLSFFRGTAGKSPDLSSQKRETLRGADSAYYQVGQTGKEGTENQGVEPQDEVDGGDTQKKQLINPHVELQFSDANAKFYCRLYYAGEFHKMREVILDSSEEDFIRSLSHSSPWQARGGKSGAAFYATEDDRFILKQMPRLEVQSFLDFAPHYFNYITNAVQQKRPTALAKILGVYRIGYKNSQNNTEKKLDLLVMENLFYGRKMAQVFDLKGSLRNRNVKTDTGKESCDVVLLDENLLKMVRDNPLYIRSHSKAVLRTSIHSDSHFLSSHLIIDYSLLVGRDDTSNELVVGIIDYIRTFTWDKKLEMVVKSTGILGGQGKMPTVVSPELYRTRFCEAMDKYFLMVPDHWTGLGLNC
Procedure: This work was performed at Caprotec Bioanalytics GmbH, Berlin Germany. See Michaelis et al., J. Med. Chem., 55 3934-44 (2012) and references cited therein.
Capture conditions were optimized in whole cell lysate from H4 (human neuroglioma) cancer cells, e.g. minimization of non-specific interactions of the proteins with capture compounds, concentration of reagents and proteins to obtain maximum binding of proteins and capture compounds, etc. […] These specific binders were further subjected to stringent data analysis criteria to determine specificity after unbiased data evaluation. Specific protein binders were ranked according to their fold change (FC) values in the capture experiments.

[3] = tested on: TRI-AML102 (TSC2 null AML) cells; assay: 10-point dose response viability (CellTiter-Glo, 72 hours); assay type: cell-based; conditions: Homo sapiens; AML column; average of two experiments
Description: (§1) See e.g., Zhang et al. J. Clin. Invest. 112, 1223-33, 2003. (2) ELT3-EV and ELT3-TSC2 lines were established from the ELT3 rat tumor cell line. The ELT3 line is an established rat tumor model for LAM/TSC. See e.g., Howe et al., Am. J. Path. 146, 1568-79, 1995. These cells harbor an inactivating mutation in TSC2, which leads to constitutive activation of the mTOR pathway. To develop an isogenic pair of cells ELT3 cells were infected with a retrovirus vector encoding the hygromycin antibiotic resistance gene (ELT3-EV) or the same retrovirus vector also encoding TSC2 (ELT3-TSC2). The ELT3-EV and ELT3-TSC2 line were then established by hygromycin selection. (3) TRI-AML102 and AML103 lines were established from a TSC2 null primary human AML sample provided by Dr. Elizabeth Henske (Fox Chase Cancer Center, Philadelphia, Pa.). The cells were infected with amphotropic retrovirus LXSN16E6E7 that encodes the HPV16 E6 and E7 open reading frames and neomycin resistance cassette. Cells were expanded and neomycin-selected. Individual clones were isolated and frozen down. The coding sequence for the human Telomerase gene (hTERT) with hygromycin resistance cassette (pLXSN hTERT-hyg plasmid) was stably expressed into a TSC2^−/− confirmed E6E7 AML clone using Fugene6 transfection reagent (Roche Applied Science, Indianapolis, Ind.). TRI-AML102 was generated by stable incorporation of a control zeomycin selection plasmid (pcDNA3.1-zeo), while TRI-AML103 expresses the human TSC2 cDNA pcDNA3.1-zeo plasmid. As a result of these engineering processes, both TRI102 and TRI103 are neomycin, hygromycin, and zeomycin resistant lines.
(§2) IC50 values were then calculated from the dose response curves using XLFIT (IDBS).

[4] = tested on: (TSC2+/−, p53−/−) MEF line; assay: as above; assay type: cell-based; conditions: Mus musculus; MEF TSC2+/− p53−/− as counterpart of TSC2−/− p53−/−; average of two experiments; read-out: IC50 TSC2 rescue (viability)
Description: as §1, §2

[5] = tested on: TRI-AML103 (TSC2 rescue AML) cells; assay: as above; assay type: cell-based; conditions: Homo sapiens; AML column, rescue line; average of two experiments
Description: as §1, §2

[6] = tested on: MEF-TSC2 (TSC2 rescue) cells; assay: as above; assay type: cell-based; conditions: Mus musculus; MEF TSC2 rescue line; average of two experiments
Description: as §1, §2

[7] = tested on: ELT3-EV cells; assay: as above; assay type: cell-based; conditions: Rattus norvegicus, average of two experiments, read-out: IC50 TSC2−/− (viability)
Description: as §1, §2

[8] = tested on: (TSC2−/−, p53−/−) MEF line; assay: as above; assay type: cell-based; conditions: Mus musculus, average of two experiments
Description: as §1, §2

[9] = tested on: MEF-EV (TSC2−/−) cells; assay: as above; assay type: cell-based; conditions: Mus musculus, average of two experiments
Description: as §1, §2

[10] = tested on: ELT3-TSC2 cells; assay: as above; assay type: cell-based; conditions: Rattus norvegicus; ELT3 rescue line; average of two experiments
Description: as §1, §2

[11] = tested on: Jurkat; conditions: cited from earlier work
[12] = tested on: THP-1; conditions: cited from earlier work
[13] = tested on: HELA; conditions: cited from earlier work
[14] = tested on: H4; assay: Cell viability dose response; assay type: cell-based; conditions: Homo sapiens, H4, Human neuroglioma
Description: (§3) 35 cell lines were identified as sensitive to apilimod-induced cytotoxicity.
(§4) Autophagy was quantified using the Cyto-ID Autophagy detection kit (Enzo) according to manufacturer's directions.
No statistically significant relationship was found with the sole exception of IL-23A (p=0.022). […] Importantly, the statistical significance of IL-23A expression in sensitive cancer lines appears to be driven entirely by just two colon cancer lines. Furthermore IL-23A expression is not a statistically significant predictor of sensitivity in Non-Hodgkin's B cell lymphoma.

[15] = tested on: H4 neuroglioma cell line; assay: Autophagic vacuoles (Cyto-ID Autophagy detection kit); assay type: cell-based, human; conditions: H4 cells, 72 hours of treatment
Description: as §4

[16] = tested on: U937; conditions: cited from earlier work
[17] = tested on: patients with rheumatoid arthritis; conditions: Phase II; cited from earlier work
[18] = tested on: normal lung fibroblasts; assay: Cytotoxicity in normal cells; assay type: cell-based; conditions: concentrations as high as 10 micromolar
Description: as §3

[19] = tested on: renal clear cell carcinoma cell line RCC-JW; assay: Antiproliferative single treatment study (CellTiterGlo, 120 h); assay type: cell-based; conditions: read-out: IC50 (Avg., n=2)
Procedure: (§5) All drug dilutions were made up as a 2× stock and 50 μL added to appropriate wells. Cells were treated for 120 h before viability was assessed using CellTiterGlo® (Promega) where the relative luminescence of untreated cells was set to 100% viability and each drug concentration expressed as a percentage of untreated cells. EC50 values were determined using GraphPad Prism (GraphPad Software, Inc). Briefly, raw data was log transformed and then analyzed using nonlinear regression (curve fit) where the data were constrained (bottom=0, top=100).

[20] = tested on: renal clear cell carcinoma cell line RCC-JF; assay: as above; assay type: cell-based; conditions: read-out: IC50 (Avg., n=2)
Procedure: as §5

[21] = tested on: renal clear cell carcinoma cell line RCC-FG2; assay: as above; assay type: cell-based; conditions: read-out: IC50 (Avg., n=2); RCC-FG2, 120 h
Procedure: as §5

[22] = tested on: renal clear cell carcinoma cell line 769-P; assay: as above; assay type: cell-based; conditions: Homo sapiens, read-out: IC50 (Avg., n=2)
Procedure: as §5

[23] = tested on: renal clear cell carcinoma cell line 786-O; assay: as above; assay type: cell-based; conditions: Homo sapiens, 786-0, read-out: IC50 (Avg., n=2)
Procedure: as §5

[24] = tested on: renal clear cell carcinoma cell line A704; assay: as above; assay type: cell-based; conditions: Homo sapiens, A704, 120 h, read-out: IC50 (Avg., n=2)
Procedure: as §5

[25] = tested on: renal clear cell carcinoma cell line RCC-MF; assay: as above; assay type: cell-based; conditions: read-out: IC50 (Avg., n=2)
Procedure: as §5

[26] = tested on: renal clear cell carcinoma cell line RCC-ER; assay: as above; assay type: cell-based; conditions: read-out: IC50 (Avg., n=2)
Procedure: as §5

## Cc1cccc(/C=N/Nc2cc(N3CCOCC3)nc(OCCc3ccccn3)n2)c1 [apilimod]
[1]
  cytotoxicity: not cytotoxic
[2]; capture compound 0.1 μM
  log (FC): 6.2
[2]; capture compound 0.5 μM
  log (FC): 5.6
[2]; capture compound 1.0 μM
  log (FC): Inf.
[2]; capture compound 2.0 μM
  log (FC): 3.9
[3]
  pIC50: 6.93
[4]
  pIC50: 7.15
[5]
  pIC50: 6.88
[6]
  pIC50: 7.70
[7]
  pIC50: 7.86
[8]
  pIC50: 7.54
[9]
  pIC50: 7.71
[10]
  pIC50: 7.79
[11]
  cytotoxicity: not cytotoxic
[12]
  cytotoxicity: not cytotoxic
[13]
  cytotoxicity: not cytotoxic
[14]
  pIC50: 6.52 to 6.60
[15]
  autophagy (autophagic vacuoles): induces autophagy in a dose-dependent manner
[16]
  cytotoxicity: not cytotoxic
[17]
  synovial IL-12 and IL-23 expression: failed to alter synovial IL-12 and IL-23 expression
[18]
  sensitivity to apilimod-induced cytotoxicity: not sensitive

## Cc1cccc(/C=N/Nc2cc(N3CCOCC3)nc(OCCc3ccccn3)n2)c1 [LAM-002]
[19]
  pIC50: 7.57
[20]
  pIC50: 7.22
[21]
  pIC50: 7.49
[22]
  pIC50: 7.36
[23]
  pIC50: 7.15
[24]
  pIC50: 7.96
[25]
  pIC50: 8.10
[26]
  pIC50: 8.05
